The source made the active and inactive calls. The calls are words filed in the database; no cut-off is given here.
Assays:
[1] = molecular target: T1, Retinoic acid receptor beta (Homo sapiens, UniProt P10826); assay: Binding affinity towards Retinoic acid receptor beta
T1 sequence (P10826 whole entry): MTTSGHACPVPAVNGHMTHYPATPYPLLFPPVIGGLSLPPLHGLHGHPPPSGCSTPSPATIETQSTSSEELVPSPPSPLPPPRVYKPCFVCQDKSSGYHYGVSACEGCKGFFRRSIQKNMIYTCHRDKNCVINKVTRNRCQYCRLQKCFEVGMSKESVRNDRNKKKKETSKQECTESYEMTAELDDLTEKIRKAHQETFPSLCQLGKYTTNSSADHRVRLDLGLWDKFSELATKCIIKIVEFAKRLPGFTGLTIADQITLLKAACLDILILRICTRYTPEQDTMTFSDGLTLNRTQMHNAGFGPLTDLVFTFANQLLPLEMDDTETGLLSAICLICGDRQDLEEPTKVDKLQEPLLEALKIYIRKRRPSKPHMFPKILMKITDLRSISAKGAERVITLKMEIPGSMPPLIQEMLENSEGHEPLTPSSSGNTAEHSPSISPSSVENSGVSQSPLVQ

[2] = molecular target: T2, Retinoic acid receptor RXR-alpha (Homo sapiens) (UniProt P19793); assay: Evaluated for RXR-alpha functional transcriptional activation; NA means not active at 1 uM
T2 sequence (whole entry): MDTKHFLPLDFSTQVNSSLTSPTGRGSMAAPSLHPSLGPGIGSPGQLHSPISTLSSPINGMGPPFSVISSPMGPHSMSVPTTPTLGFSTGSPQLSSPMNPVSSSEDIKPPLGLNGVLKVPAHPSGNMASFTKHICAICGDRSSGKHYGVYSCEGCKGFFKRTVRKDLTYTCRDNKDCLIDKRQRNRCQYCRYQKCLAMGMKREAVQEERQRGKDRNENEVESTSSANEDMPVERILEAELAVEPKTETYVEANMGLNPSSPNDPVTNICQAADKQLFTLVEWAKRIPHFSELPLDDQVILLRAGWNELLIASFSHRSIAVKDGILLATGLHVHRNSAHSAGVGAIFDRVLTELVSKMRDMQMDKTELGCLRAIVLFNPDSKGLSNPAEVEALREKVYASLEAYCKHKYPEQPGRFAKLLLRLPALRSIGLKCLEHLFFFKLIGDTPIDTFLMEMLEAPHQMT

F9 [3] = assay: Compound was tested for its ability to induce differentiation of F9 cells as estimated by plasminogen activator secretion (PA); assay type: functional, cell-based; conditions: Mus musculus
[4] = molecular target: T3, Retinoic acid receptor gamma (Homo sapiens, UniProt P13631); assay: Binding affinity towards Retinoic acid receptor gamma
T3 sequence (P13631 whole entry): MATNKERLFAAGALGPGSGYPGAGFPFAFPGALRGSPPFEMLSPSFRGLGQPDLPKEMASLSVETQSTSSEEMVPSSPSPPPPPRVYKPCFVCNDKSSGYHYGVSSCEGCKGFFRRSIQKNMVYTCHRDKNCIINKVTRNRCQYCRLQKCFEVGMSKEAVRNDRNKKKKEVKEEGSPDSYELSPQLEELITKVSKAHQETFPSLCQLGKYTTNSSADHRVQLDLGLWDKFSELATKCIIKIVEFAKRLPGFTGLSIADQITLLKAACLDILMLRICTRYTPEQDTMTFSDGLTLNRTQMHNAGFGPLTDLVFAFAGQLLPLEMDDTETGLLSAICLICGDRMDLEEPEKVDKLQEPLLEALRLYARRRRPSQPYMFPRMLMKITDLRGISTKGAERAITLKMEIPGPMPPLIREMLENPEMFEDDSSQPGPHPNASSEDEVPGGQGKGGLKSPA

[5] = molecular target: T4, Retinoic acid receptor alpha (Homo sapiens, UniProt P10276); assay: Binding affinity towards Retinoic acid receptor alpha
T4 sequence (P10276 whole entry): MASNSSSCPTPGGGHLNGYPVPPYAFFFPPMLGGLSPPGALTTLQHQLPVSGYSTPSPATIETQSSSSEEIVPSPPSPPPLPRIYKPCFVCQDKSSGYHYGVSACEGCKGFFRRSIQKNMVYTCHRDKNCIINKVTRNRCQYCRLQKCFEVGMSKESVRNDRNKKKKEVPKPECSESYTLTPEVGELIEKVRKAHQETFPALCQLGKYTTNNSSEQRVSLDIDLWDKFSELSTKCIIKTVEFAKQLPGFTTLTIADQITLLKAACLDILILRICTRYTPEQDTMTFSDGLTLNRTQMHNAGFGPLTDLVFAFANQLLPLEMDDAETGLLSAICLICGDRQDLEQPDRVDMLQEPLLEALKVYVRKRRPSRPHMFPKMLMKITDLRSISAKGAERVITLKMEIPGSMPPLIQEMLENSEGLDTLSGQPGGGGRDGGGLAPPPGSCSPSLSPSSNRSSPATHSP

F9 [6] = assay: Compound was tested for its ability to induce differentiation of F9 cells as estimated by plasminogen activator secretion (PA); NA = Not active; assay type: functional, cell-based, Mus musculus

Compound | Ki [1] [nM] | Activity [2] | Ki [4] [nM] | Ki [5] [nM] | AC50 (F9 [3]) [nM] | AC50 (F9 [6])
CC(C)(C)c1cc(C2=Cc3ccc(C(=O)O)cc3OC2)cc(C(C)(C)C)c1O | > 3000 | inactive | 531 | – | 305 | –
CC1(C)CCC(C)(C)c2cc(-c3ccc4cc(C(=O)O)ccc4c3)ccc21 | – | inactive | – | – | – | –
O=C(O)c1ccc2c(c1)OCC(c1ccc(O)c(C34C[C@H]5C[C@@H](C3)C[C@@H](C4)C5)c1)=C2 | > 3000 | inactive | 148 | 821 | 107 | –
CC(C)(C)c1cc(C2=Cc3ccc(C(=O)O)cc3OC2)ccc1O | > 3000 | inactive | > 3000 | > 3000 | – | Not Active

Continued, in another order:

Ki [1] [nM] | Activity [2] | Ki [4] [nM] | Ki [5] [nM] | Compound | AC50 (F9 [3]) [nM] | AC50 (F9 [6])
71 | inactive | 174 | 764 | COc1ccc(C2=Cc3ccc(C(=O)O)cc3OC2)cc1C12C[C@H]3C[C@@H](C1)C[C@@H](C2)C3 | – | –
90 | inactive | 1040 | 5790 | CC1(C)CCC(C)(C)c2cc(C3COc4cc(C(=O)O)ccc4C3)ccc21 (centres undefined) | 300 | –
> 3000 | inactive | – | > 3000 | CC(C)(C)c1cc(-c2ccc3cc(C(=O)O)ccc3c2)ccc1O | – | Not Active
– | inactive | – | – | COc1ccc(-c2ccc3cc(C(=O)O)ccc3c2)cc1C12CC3CC(CC(C3)C1)C2 | – | –
36 | inactive | 19 | 487 | CC1(C)CCC(C)(C)c2cc(C3=Cc4ccc(C(=O)O)cc4OC3)ccc21 | 58 | –

— ChEMBL document CHEMBL1150002, “Synthesis and biological activities of new heterocyclic aromatic retinoids” (Bioorg Med Chem Lett, 1997)
